Measured values published in patent US20250154686A1, “COMPOUND LIBRARY” (CHUGAI SEIYAKU KABUSHIKI KAISHA, priority 2021, published 2025).

Molecular target: T1, Bcl-2 protein (Recombinant Human Bcl-2 Protein) (Homo sapiens, UniProt P10415)
T1 construct: purchased Novus Biologicals NBP2-34889
Experiment: AS-MS evaluation of binding of the Example 4 mixture library (1200 compounds/well) to Bcl-2, ASMS ratio (%)
Procedure, shortened: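 ASMS ratio (%) derived from reverse-phase LC/MS of three samples: Bcl-2 (20 μM) incubation after SEC, protein-free standard without SEC, and protein-free blank after SEC. Compounds were pooled at 1200/well, 20 nM each, incubated 1 h, 23 °C, dark, in Tris-HCl pH 7.4 buffer with Tween-20 and DTT.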

[1] = AS-MS, Example 4 mixture library, Bcl-2, replicate n = 1
[2] = AS-MS, Example 4 mixture library, Bcl-2, replicate n = 2
[3] = replicate n = 1, mixture library, value belongs to the MS peak assigned to the compound
[4] = replicate n = 2, mixture library, value belongs to the MS peak assigned to the compound
[5] = AS-MS, mixture of 1200 compounds/well, Bcl-2 protein, replicate n = 1
[6] = AS-MS, mixture of 1200 compounds/well, Bcl-2 protein, replicate n = 2

T1 sequence (P10415 whole entry): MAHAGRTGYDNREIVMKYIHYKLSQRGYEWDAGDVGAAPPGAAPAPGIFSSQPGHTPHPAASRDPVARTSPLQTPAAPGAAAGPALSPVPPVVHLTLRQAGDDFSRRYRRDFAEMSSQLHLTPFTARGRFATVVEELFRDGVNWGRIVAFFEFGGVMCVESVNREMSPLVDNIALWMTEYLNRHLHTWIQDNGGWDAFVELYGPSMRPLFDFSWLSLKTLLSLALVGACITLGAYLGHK

| ASMS ratio (%) n = 1 [1] [%] | ASMS ratio (%) n = 2 [2] [%] | ASMS ratio (%) n = 1 [3] [%] | ASMS ratio (%) n = 2 [4] [%] | Molecule | other results |
| --- | --- | --- | --- | --- | --- |
| 17.7 | −1.3 | – | – | CCOc1cccc(-c2ccccc2CCC(=O)N2CCN(c3ccc(C(=O)NS(=O)(=O)c4ccc(NCCSc5ccccc5)c(C(F)(F)F)c4)nn3)CC2)c1 [Compound B2R011-01, 6-[4-[3-[2-(3-Ethoxyphenyl)phenyl]propanoyl]piperazin-1-yl]-N-[4-(2-phenylsulfanylethylamino)-3-(trifluoromethyl)phenyl]sulfonylpyridazine-3-carboxamide] | – |
| – | – | 0.0 | 0.0 | CCOc1cncc(-c2csc(C(=O)N3CCN(c4ccc(C(=O)NS(=O)(=O)C(C)(C)C)cc4)CC3)c2)c1 [Compound B2L024-01, N-tert-Butylsulfonyl-4-[4-[4-(5-ethoxypyridin-3-yl)thiophene-2-carbonyl]piperazin-1-yl]benzamide] | – |
| – | – | – | – | CCCNC(=O)c1ccc(N2CCN(C(=O)c3cc(-c4cncc(OCC)c4)cc(C(C)(C)C)c3)CC2)nn1 [Compound B1M016-01] | ASMS ratio (%) n = 1 [5]: 0.0%; ASMS ratio (%) n = 2 [6]: 0.0% |
| −3.7 | 1.2 | – | – | CCOc1cccc(-c2ccc(C(=O)N3CCN(c4ccc(C(=O)NS(=O)(=O)c5ccc(NCCSc6ccccc6)c(C(F)(F)F)c5)cc4)CC3)cc2F)c1 [Compound B2R027-01, 4-[4-[4-(3-Ethoxyphenyl)-3-fluorobenzoyl]piperazin-1-yl]-N-[4-(2-phenylsulfanylethylamino)-3-(trifluoromethyl)phenyl]sulfonylbenzamide] | – |
| 0.0 | 0.0 | – | – | CCOc1cncc(-c2ccc(CN3CCN(c4ccc(C(=O)NS(=O)(=O)CCC(F)(F)F)nn4)CC3)c(OC)c2)c1 [Compound B2N080-01, 6-[4-[[4-(5-Ethoxypyridin-3-yl)-2-methoxyphenyl]methyl]piperazin-1-yl]-N-(3,3,3-trifluoropropylsulfonyl)pyridazine-3-carboxamide] | – |
| – | – | 0.0 | 0.0 | CCOc1cccc(-c2cc(CN3CCN(c4ccc(C(=O)NS(C)(=O)=O)cc4)CC3)cc(OCC)c2)c1 [Compound B2I055-01, 4-[4-[[3-Ethoxy-5-(3-ethoxyphenyl)phenyl]methyl]piperazin-1-yl]-N-methylsulfonylbenzamide] | – |
| – | – | – | – | CCCNC(=O)c1ccc(N2CCN(C(=O)c3cc(-c4cncc(OCC)c4)cs3)CC2)cc1 [Compound B1M024-01] | ASMS ratio (%) n = 1 [5]: 0.0%; ASMS ratio (%) n = 2 [6]: 0.0% |
| 0.0 | 0.0 | – | – | CCOc1cncc(C#Cc2ccccc2CN2CCN(c3ccc(C(=O)NS(=O)(=O)CCC(F)(F)F)cc3)CC2)c1 [Compound B2N070-01, 4-[4-[[2-[2-(5-Ethoxypyridin-3-yl)ethynyl]phenyl]methyl]piperazin-1-yl]-N-(3,3,3-trifluoropropylsulfonyl)benzamide] | – |
| 0.0 | 0.0 | – | – | CCOc1cncc(-c2cc(C(=O)N3CCN(c4ccc(C(=O)NS(=O)(=O)CCC(F)(F)F)cc4)CC3)cc(C(F)(F)F)c2)c1 [Compound B2N040-01, 4-[4-[3-(5-Ethoxypyridin-3-yl)-5-(trifluoromethyl)benzoyl]piperazin-1-yl]-N-(3,3,3-trifluoropropylsulfonyl)benzamide] | – |
| 0.0 | 0.0 | – | – | CCOc1cccc(-c2ccc(CN3CCN(c4ccc(C(=O)NS(=O)(=O)CCC(F)(F)F)cc4)CC3)c(CC)c2)c1 [Compound B2N049-01, 4-[4-[[4-(3-Ethoxyphenyl)-2-ethylphenyl]methyl]piperazin-1-yl]-N-(3,3,3-trifluoropropylsulfonyl)benzamide] | – |
| 0.0 | 0.0 | – | – | CCOc1cccc(-c2csc(CN3CCN(c4ccc(C(=O)NS(=O)(=O)CCC(F)(F)F)cc4)CC3)c2)c1 [Compound B2N067-01, 4-[4-[[4-(3-Ethoxyphenyl)thiophen-2-yl]methyl]piperazin-1-yl]-N-(3,3,3-trifluoropropylsulfonyl)benzamide] | – |
| 0.0 | −0.5 | – | – | CCOc1cncc(-c2ccc(CN3CCN(c4ccc(C(=O)NS(=O)(=O)CCC(F)(F)F)cc4)CC3)cc2F)c1 [Compound B2N052-01] | – |
| – | – | −0.8 | 0.5 | CCOc1cccc(-c2cc(CN3CCN(c4ccc(C(=O)NS(C)(=O)=O)cc4)CC3)cc(C(F)(F)F)c2)c1 [Compound B2I061-01, 4-[4-[[3-(3-Ethoxyphenyl)-5-(trifluoromethyl)phenyl]methyl]piperazin-1-yl]-N-methylsulfonylbenzamide] | – |
| – | – | 5.5 | 9.3 | CCOc1cncc(-c2ccc(C(=O)N3CCN(c4ccc(C(=O)NS(=O)(=O)C(C)(C)C)nn4)CC3)cc2C)c1 [Compound B2L004-01] | – |
| 0.0 | 0.0 | – | – | CCOc1cccc(-c2ccc(CN3CCN(c4ccc(C(=O)NS(=O)(=O)CCC(F)(F)F)nn4)CC3)cc2C)c1 [Compound B2N073-01, 6-[4-[[4-(3-Ethoxyphenyl)-3-methylphenyl]methyl]piperazin-1-yl]-N-(3,3,3-trifluoropropylsulfonyl)pyridazine-3-carboxamide] | – |
| – | – | 4.6 | −11.1 | CCOc1cccc(-c2cc(CN3CCN(c4ccc(C(=O)NS(=O)(=O)C(C)(C)C)cc4)CC3)cc(C(F)(F)F)c2)c1 [Compound B2L061-01, N-tert-Butylsulfonyl-4-[4-[[3-(3-ethoxyphenyl)-5-(trifluoromethyl)phenyl]methyl]piperazin-1-yl]benzamide] | – |
| – | – | 0.0 | 0.0 | CCOc1cccc(-c2ccc(C(=O)N3CCN(c4ccc(C(=O)NS(=O)(=O)C(C)(C)C)nn4)CC3)c3ccccc23)c1 [Compound B2L013-01] | – |
| – | – | – | – | CCCNC(=O)c1ccc(N2CCN(C(=O)c3ccc(-c4cccc(OCC)c4)c4ccccc34)CC2)nn1 [Compound B1M013-01] | ASMS ratio (%) n = 1 [5]: 2.9%; ASMS ratio (%) n = 2 [6]: −1.1% |
| – | – | 0.9 | 0.0 | CCOc1cccc(-c2cc(CN3CCN(c4ccc(C(=O)NS(C)(=O)=O)cc4)CC3)cc(OC(F)(F)F)c2)c1 [Compound B2I063-01, 4-[4-[[3-(3-Ethoxyphenyl)-5-(trifluoromethoxy)phenyl]methyl]piperazin-1-yl]-N-methylsulfonylbenzamide] | – |
| – | – | – | – | CCCNC(=O)c1ccc(N2CCN(C(C)c3ccc(-c4cccc(OCC)c4)cc3)CC2)cc1 (stereo not drawn) [Compound B1M097-01] | ASMS ratio (%) n = 1 [5]: 1.1%; ASMS ratio (%) n = 2 [6]: 0.3% |
| – | – | −67.5 | 0.0 | CCOc1cccc(-c2csc(C(=O)N3CCN(c4ccc(C(=O)NS(=O)(=O)C(C)(C)C)nn4)CC3)c2)c1 [Compound B2L001-01] | – |
| – | – | 0.0 | 0.0 | CCOc1cncc(-c2ccc(CN3CCN(c4ccc(C(=O)NS(=O)(=O)C(C)(C)C)nn4)CC3)c(OC)c2)c1 [Compound B2L080-01] | – |
| – | – | – | – | CCOc1cccc(-c2cc(CN3CCN(c4ccc(C(=O)NCC56CC7CC(CC(C7)C5)C6)nn4)CC3)cc(OCC)c2)c1 [Compound B1A081-01, N-(1-Adamantylmethyl)-6-[4-[[3-ethoxy-5-(3-ethoxyphenyl)phenyl]methyl]piperazin-1-yl]pyridazine-3-carboxamide] | ASMS ratio (%) n = 2 (mixture library of 1200 compounds/well, Bcl-2 protein, replicate n = 2, compounds assigned by expected m/z): −5. % |
| – | – | 0.0 | 0.0 | CCOc1cncc(-c2ccc(CN3CCN(c4ccc(C(=O)NS(C)(=O)=O)cc4)CC3)c3ccccc23)c1 [Compound B2I066-01, 4-[4-[[4-(5-Ethoxypyridin-3-yl)naphthalen-1-yl]methyl]piperazin-1-yl]-N-methylsulfonylbenzamide] | – |
| 0.0 | 0.0 | – | – | CCOc1cncc(-c2ccc(C(=O)N3CCN(c4ccc(C(=O)NS(=O)(=O)CCC(F)(F)F)nn4)CC3)c3ccccc23)c1 [Compound B2N014-01, 6-[4-[4-(5-Ethoxypyridin-3-yl)naphthalene-1-carbonyl]piperazin-1-yl]-N-(3,3,3-trifluoropropylsulfonyl)pyridazine-3-carboxamide] | – |
| – | – | – | – | 4-[4-[[2-[2-(3-Ethoxyphenyl)ethynyl]phenyl]methyl]piperazin-1-yl]-N-propylbenzamide [Compound B1M052-01] | ASMS ratio (%) n = 1 [5]: 27.6%; ASMS ratio (%) n = 2 [6]: 20.2% |
| 0.0 | 0.0 | – | – | CCOc1cccc(-c2cc(OC)c(CN3CCN(c4ccc(C(=O)NS(=O)(=O)CCC(F)(F)F)nn4)CC3)c(OC)c2)c1 [Compound B2N085-01, 6-[4-[[4-(3-Ethoxyphenyl)-2,6-dimethoxyphenyl]methyl]piperazin-1-yl]-N-(3,3,3-trifluoropropylsulfonyl)pyridazine-3-carboxamide] | – |
| – | – | 0.0 | 0.0 | CCOc1cccc(-c2cnn(-c3cc(C(=O)N4CCN(c5ccc(C(=O)NS(=O)(=O)C(C)(C)C)cc5)CC4)cc(C(F)(F)F)c3)c2)c1 [Compound B2L043-01, N-tert-Butylsulfonyl-4-[4-[3-[4-(3-ethoxyphenyl)pyrazol-1-yl]-5-(trifluoromethyl)benzoyl]piperazin-1-yl]benzamide] | – |
| 0.0 | 0.0 | – | – | CCOc1cccc(-c2ccc(C(C)N3CCN(c4ccc(C(=O)NS(=O)(=O)C(C)(C)C)cc4)CC3)cc2)c1 (stereo not drawn) [Compound B2L097-01, N-tert-Butylsulfonyl-4-[4-[1-[4-(3-ethoxyphenyl)phenyl]ethyl]piperazin-1-yl]benzamide] | – |
